Laboratory results from patent US10204708B2, “System and method for deriving parameters for homeostatic feedback control of an individual” (Agency for Science, Technology and Research, priority 2012, dated 2019).

Experiments:
Format in all cases: in vivo, human
[1] = thyroid function test, free thyroxin [FT4] level of patient under treatment
Description: (§1) The method 10 is particularly suited to derive the hypothalamus pituitary (HP) characteristic of the individual. The HP characteristic of, the individual relates the level of thyroid-stimulating hormone [TSH] level in milliunits per liter (mU/L) and the corresponding free thyroxin [FT4] level in picomoles per liter (pmol/L) in the individual. In the following description, homeostatic measurements would be understood to refer to measurements of the level of [TSH] and corresponding [FT4] in an individual.
(§2) Each homeostatic measurement comprises a value of a [TSH] reading and a corresponding [FT4] reading. To determine the S and φ parameters for the individual, at least two well distinguishable homeostatic, measurements (i.e. ([FT4]1, [TSH]1) and ([FT4]2, [TSH]2)) from the individual are obtained with a predetermined time gap in between each measurement. The measurements are performed on samples taken near the same time of the day by the same analytical measurement method and ideally applied by one and the same person whenever feasible to minimise errors that can compromise the accuracy of the model estimates.
(§3) Preferably, the individual measurements are performed in a fasting condition and separated by 6 weeks while under medical treatment for a hypothyroidism or hyperthyroidism state with the replacement hormone for [T4] leading to a state of clinical euthyroidism.
(§4) Any method known for measuring homeostatic parameters would be suitable, for example, various types of chromatography, immunochemistry or other methods known to accurately measure the amount of a homeostatic expression product, as long as the same measurement method is applied by one and the same person.

[2] = thyroid function test, thyroid-stimulating hormone [TSH] level of patient under treatment
Description: as §1, §2, §3, §4

[3] = clinical course of hypothyroid Graves' disease patient on L-thyroxin; settings: Example 3 patient, 75 mcg L-T4 daily
Description: They were thus started on L-thyroxin from day 456 at 25 mcg daily, and escalated to 50 mcg daily from day 715.

[4] = Example 1 patient, day 0, Rx CMZ 20
[5] = Example 1 patient, day 53, Rx CMZ 10
[6] = Example 1 patient, day 86, Rx CMZ 30
[7] = Example 1 patient, day 125, Rx CMZ 10
[8] = Example 1 patient, day 210, Rx LT4 50 (mcg daily), after radioiodine-131 ablation
[9] = Example 1 patient, day 269, Rx LT4 50 (mcg daily)
[10] = Example 6 patient, 1 Oct. 2007, LT4 100
[11] = Example 6 patient, 2 May 1997, LT4 25
[12] = Example 6 patient, 3 May 2005, LT4 75
[13] = Example 6 patient, 5 Oct. 2005, LT4 100
[14] = Example 6 patient, 6 May 2011, LT4 100
[15] = Example 6 patient, 10 Dec. 2010, LT4 100
[16] = Example 6 patient, 12 Feb. 2007, LT4 100
[17] = Example 6 patient, 14 May 2007, LT4 100
[18] = Example 6 patient, 16 Aug. 1999, LT4 50
[19] = Example 6 patient, 16 Mar. 2012, LT4 100
[20] = Example 6 patient, 17 Aug. 1998, LT4 50
[21] = Example 6 patient, 19 Oct. 2006, LT4 100
[22] = Example 6 patient, 21 Jun. 2006, LT4 100
[23] = Example 6 patient, 23 Jan. 2006, LT4 100
[24] = Example 6 patient, 24 Apr. 2002, LT4 50
[25] = Example 6 patient, 26 Oct. 1999, LT4 50
[26] = Example 6 patient, 28 Jul. 2008, LT4 100

Compound `CCOC(=O)n1ccn(C)c1=S` [CMZ, carbimazole] has an FT4 [1, 4] of 53.3 pmol/L, an FT4 [1, 5] of 12.5 pmol/L and an FT4 [1, 6] of 31.3 pmol/L. For the same compound, the FT4 [1, 7] was 11 pmol/L, the TSH [2, 4] was <0.01 mU/L and the TSH [2, 5] was <0.01 mU/L. The TSH [2, 6] was 0.005 mU/L and the TSH [2, 7] was 0.02 mU/L.

For `N[C@@H](Cc1cc(I)c(Oc2cc(I)c(O)c(I)c2)c(I)c1)C(=O)O` [LT4, levothyroxin], the clinical outcome [3] was “euthyroidism and resolution of all their hypothyroid symptoms”, the FT4 [1, 8] was 5 pmol/L and the FT4 [1, 9] was 10 pmol/L. For the same compound, the FT4 ([1]; Example 4 patient, radiation-induced thyroid failure, LT4 25 mcg once daily) was “about 10 pmol/L”, the FT4 [1, 10] was 11 pmol/L and the FT4 [1, 11] was 11.5 pmol/L. It also gave an FT4 [1, 12] of 13 pmol/L, an FT4 [1, 13] of 16 pmol/L and an FT4 [1, 14] of 17 pmol/L. The FT4 [1, 15] was 18 pmol/L, the FT4 [1, 16] was 15 pmol/L and the FT4 [1, 17] was 14 pmol/L. It also gave an FT4 [1, 18] of 12 pmol/L, an FT4 [1, 19] of 15 pmol/L and an FT4 [1, 20] of 10.6 pmol/L. For the same compound, the FT4 [1, 21] was 12 pmol/L, the FT4 [1, 22] was 13 pmol/L and the FT4 [1, 23] was 14 pmol/L. It also gave an FT4 [1, 24] of 13 pmol/L, an FT4 [1, 25] of 14 pmol/L and an FT4 [1, 26] of 13 pmol/L. For the same compound, the TSH [2, 8] was 9.05 mU/L, the TSH [2, 9] was 0.12 mU/L and the TSH [2, 10] was 4.34 mU/L. The TSH [2, 11] was 8.64 mU/L, the TSH [2, 12] was 6.67 mU/L and the TSH [2, 13] was 1.10 mU/L. For the same compound, the TSH [2, 14] was 0.99 mU/L, the TSH [2, 15] was 0.41 mU/L and the TSH [2, 16] was 2.65 mU/L. It also gave a TSH [2, 17] of 1.72 mU/L, a TSH [2, 18] of 4.96 mU/L and a TSH [2, 19] of 2.20 mU/L. The TSH [2, 20] was 8.71 mU/L, the TSH [2, 21] was 2.43 mU/L and the TSH [2, 22] was 1.48 mU/L. For the same compound, the TSH [2, 23] was 2.18 mU/L, the TSH [2, 24] was 2.32 mU/L and the TSH [2, 25] was 3.03 mU/L. It also gave a TSH [2, 26] of 3.12 mU/L.
